# Measured values reported in patent publication US10738051B2, “β-lactamase inhibitors” (priority 2016, dated 2020).
# Legend:
# [1] = test system: OXA-181 carbapenemase-producing strains (7 strains), clinically isolated Klebsiella pneumoniae; experiment: SIC assay against Chinese clinical isolates (broth microdilution MIC); type: cell-based; conditions: for MIC50 / MIC90: Klebsiella pneumoniae; for drug resistance rate / drug sensitive rate: OXA-181 carbapenemase-producing strains (7 strains), CLSI criteria of the antibiotic, inhibitor fixed at 4 μg/mL
# Excerpt: (§1) The broth microdilution method was used to determine the minimum inhibitory concentration (MIC) of antibacterial agents (with and without BLI lead compound) against clinical isolates of carbapenemase-producing strains.
# (§2) 1. Drug susceptibility test: according to the method of antimicrobial susceptibility test described in the 2016 edition of the US Clinical and Laboratory Standards Institute (CLSI) document, the MIC of commonly used antibacterial drugs against clinically isolated bacteria was determined by a broth microdilution method.
# 2. […] All strains were clinically isolated Klebsiella pneumoniae.
# (§3) 4. Quality control strains: quality control strains of the drug susceptibility test include Escherichia coli ATCC 25922 and ATCC 35218.
# [2] = test system: NDM-1 metalloenzyme-producing strains (8 strains), clinically isolated Klebsiella pneumoniae; experiment: as above; type: cell-based; conditions: for MIC50 / MIC90: Klebsiella pneumoniae; for MIC50 / MIC90 / MIC range: NDM-1 metalloenzyme-producing K. pneumoniae clinical isolates (8 strains), enzyme inhibitor in combinations fixed at 4 μg/mL; for drug resistance rate / drug sensitive rate: NDM-1 metalloenzyme-producing strains (8 strains), CLSI criteria of the antibiotic, inhibitor fixed at 4 μg/mL
# Excerpt: as §1, §2
# (§4) 2. Strains: 8 KPC-2 carbapenemase-producing strains, 8 NDM-1 metalloenzyme-producing strains, and 6 OXA-181 carbapenemase-producing strains. All strains were clinically isolated Klebsiella pneumoniae.
# as §3
# [3] = test system: KPC-2 carbapenemase-producing strains (8 strains), clinically isolated Klebsiella pneumoniae; experiment: as above; type: cell-based; conditions: for drug resistance rate / drug sensitive rate: KPC-2 carbapenemase-producing strains (8 strains), CLSI criteria of the antibiotic, inhibitor fixed at 4 μg/mL
# Excerpt: as §1, §2, §4, §3
# [4] = test system: K. pneumoniae ATCC BAA-1144 (AmpC); experiment: In vitro synergistic inhibitory concentration (SIC) assay; type: cell-based; conditions: Klebsiella pneumoniae, ATCCBAA1144, 37° C. 20 hours, read-out: minimum inhibitory concentration, used alone
# Experimental: (§5) 2) 30 μL dimethyl sulfoxide was added to columns 2-12 of the 96-V well plate. 60 μL prepared ceftazidime was added to column 1. 30 μL ceftazidime was transferred from column 1 to column 2 and mixed with a pipette. The same operation was continued until column 11, and 30 μL of the mixture in column 11 was discarded. This was the compound mother plate.
# (§6) Mix the liquid in the mother plate with a pipette.
# (§7) 4) One day before the experiment, the bacterial glycerol stock which was stored in a −80° C. refrigerator was streaked on a trypticase soy agar plate (TSA), and the plate was incubated in a 37° C. incubator overnight. On the day of the experiment, the monoclonal bacterial was suspended in physiological saline and the turbidity of which was adjusted to 0.5 McFarland standard, corresponding to 1×10^8 CFU/ml. This suspension was diluted 100-fold to 1×10^6 CFU/mL with caton-adjusted Mueller-Hnton broth (CAMHB), which was used as an inoculation fluid.
# (§8) 5) a 96-U plate was used as a test plate. Firstly, adding 98 μL CAMHB to each well of the test plate and transferring 2 μL solution in the mother plate to the test plate. 100 μL inoculation fluid was added to each well of the test plate.
# (§9) 6) The test plate was incubated at 37° C. for 20 hours.
# (§10) The above-mentioned method was also used to determine the antibacterial activity of the test compound or the antibiotic when used alone.
# [5] = test system: K. pneumoniae ATCC BAA-2470 (NDM-1); experiment: as above; type: cell-based; conditions: Klebsiella pneumoniae, ATCCBAA2470, 37° C. 20 hours, read-out: minimum inhibitory concentration, used alone
# Experimental: as §5, §6, §7, §8, §9, §10
# [6] = test system: K. pneumoniae ATCC BAA-2472 (NDM-1); experiment: as above; type: cell-based; conditions: Klebsiella pneumoniae, ATCCBAA2472, 37° C. 20 hours, read-out: minimum inhibitory concentration, used alone
# Experimental: as §5, §6, §7, §8, §9, §10
# [7] = test system: K. pneumoniae ATCC 51503 (TEM-10/12); experiment: as above; type: cell-based; conditions: Klebsiella pneumoniae, ATCC51503, 37° C. 20 hours, read-out: minimum inhibitory concentration, used alone
# Experimental: as §5, §6, §7, §8, §9, §10
# [8] = test system: K. pneumoniae ATCC-700603 (SHV-18); experiment: as above; type: cell-based; conditions: Klebsiella pneumoniae, ATCC700603, 37° C. 20 hours, read-out: minimum inhibitory concentration, used alone
# Experimental: as §5, §6, §7, §8, §9, §10
# [9] = test system: K. pneumoniae ATCC BAA-1705 (KPC); experiment: as above; type: cell-based; conditions: Klebsiella pneumoniae, ATCCBAA1705, 37° C. 20 hours, read-out: minimum inhibitory concentration, used alone
# Experimental: as §5, §6, §7, §8, §9, §10
# [10] = test system: K. pneumoniae ATCC BAA-2524 (OXA-48); experiment: as above; type: cell-based; conditions: Klebsiella pneumoniae, ATCCBAA2524, 37° C. 20 hours, read-out: minimum inhibitory concentration, used alone
# Experimental: as §5, §6, §7, §8, §9, §10
# [11] = test system: K. pneumoniae ATCC BAA-1898 (KPC); experiment: as above; type: cell-based; conditions: Klebsiella pneumoniae, ATCCBAA1898, 37° C. 20 hours, read-out: minimum inhibitory concentration, used alone
# Experimental: as §5, §6, §7, §8, §9, §10
# [12] = test system: K. pneumoniae ATCC BAA-1899 (KPC); experiment: as above; type: cell-based; conditions: Klebsiella pneumoniae, ATCCBAA1899, 37° C. 20 hours, read-out: minimum inhibitory concentration, used alone
# Experimental: as §5, §6, §7, §8, §9, §10
# [13] = test system: E. cloacae ATCC BAA-1143 (AmpC); experiment: as above; type: cell-based; conditions: Enterobacter cloacae, ATCCBAA1143, 37° C. 20 hours, read-out: minimum inhibitory concentration, used alone
# Experimental: as §5, §6, §7, §8, §9, §10
# [14] = test system: E. coli ATCC BAA-2523 (OXA-48); experiment: as above; type: cell-based; conditions: Escherichia coli, ATCCBAA2523, 37° C. 20 hours, read-out: minimum inhibitory concentration, used alone
# Experimental: as §5, §6, §7, §8, §9, §10
# [15] = test system: K. pneumoniae ATCC BAA-205 (TEM-1/SHV-1/SHV-12); experiment: as above; type: cell-based; conditions: Klebsiella pneumoniae, ATCCBAA205, 37° C. 20 hours, read-out: minimum inhibitory concentration, used alone
# Experimental: as §5, §6, §7, §8, §9, §10
# [16] = test system: K. pneumoniae ATCC 51504 (TEM-10); experiment: as above; type: cell-based; conditions: Klebsiella pneumoniae, ATCC51504, 37° C. 20 hours, read-out: minimum inhibitory concentration, used alone
# Experimental: as §5, §6, §7, §8, §9, §10
# [17] = biological target: OXA-9 (Class D) β-lactamase (Klebsiella pneumoniae, UniProt P0A3M3); experiment: In vitro enzymatic assay (Nitrocefin); type: biochemical
# Experimental: (§11) 2) Prepare buffer solution A (1×PBS, pH 7.4, 0.1 mg/mL BSA) for enzymatic assay;
# (§12) 3) The compound mother liquor was 4-fold serial diluted for 11 times with DMSO in a 96-well tip-bottom plate, which was used as a working solution. A 96-well flat bottom plate was used as a test plate, the corresponding reaction buffer was previously added to each well, followed by addition of a corresponding volume of the working solution (100 μM-0.095 nM and 0 nM). Wherein, EDTA-Na2 was used as a control for the NDM-1 test at a concentration of 20 mM;
# (§13) 4) adding the corresponding β-lactamase, and the test plate was incubated at 37° C. for 5 minutes;
# (§14) 5) Adding 5 μL Nitrocefin (the final reaction volume was 100 μL), the absorbance OD490 of the reaction solution in the plate was measured by a microplate reader and the result was recorded, the absorbance was measured every minute over 30 minutes;
# (§15) 6) The microplate reader could give a curve of OD490 over time. The slope of the curve (Abs2−Abs1)/(T2−T1) was calculated by taking two data points Abs1 and Abs2 within the linear range of the curve.
# (§16) 7) The relative inhibition rate was calculated as follows: Slope (EC) was calculated under the condition of absence of an inhibitor, and Slop(S) was calculated under the condition of an inhibitor at a certain concentration.
# (§17) The relative inhibition rate and the corresponding concentration of the inhibitor were used to calculate the IC50 value of the inhibitor on β-lactamase. In this experiment, the IC50 was calculated using the formula of GraphPad Prism 5.0, log(inhibitor) vs. normalized response-Variable slope.
# [18] = biological target: AmpC-EC (Class C) β-lactamase (UniProt P05364); experiment: In vitro enzymatic assay (Nitrocefin); type: biochemical; conditions: Nitrocefin 0.1 mM, 1 × PBS pH 7.4, 0.1 mg/mL BSA, read-out: IC50, inhibitory activity on β-lactamase
# Experimental: as §11, §12, §13, §14, §15, §16, §17
# [19] = biological target: CTX-M-44 (Class C) β-lactamase (Escherichia coli, UniProt Q47066); experiment: In vitro enzymatic assay (Nitrocefin); type: biochemical
# Experimental: as §11, §12, §13, §14, §15, §16, §17
# [20] = biological target: OXA-2 (Class D) β-lactamase (Escherichia coli, UniProt P0A1V9); experiment: In vitro enzymatic assay (Nitrocefin); type: biochemical
# Experimental: as §11, §12, §13, §14, §15, §16, §17
# [21] = OXA-181 carbapenemase-producing K. pneumoniae clinical isolates (7 strains), enzyme inhibitor in combinations fixed at 4 μg/mL
# [22] = Klebsiella pneumoniae, KPC-2 carbapenemase-producing K. pneumoniae clinical isolates (8 strains), enzyme inhibitor in combinations fixed at 4 μg/mL
structure (smiles),measurement,setting,value
C[C@@H](O)[C@H]1C(=O)N2C(C(=O)O)=C(S[C@@H]3CN[C@H](C(=O)N(C)C)C3)[C@H](C)[C@H]12 [meropenem],MIC50,[1]; [21],0.5 µg/mL
same,MIC90,[1]; [21],2 µg/mL
same,MIC range,[1]; [21],0.5 to 2 µg/mL
same,drug resistance rate,[1],0
same,drug sensitive rate,[1],85.7
same,MIC50,[2],4 µg/mL
same,MIC90,[2],32 µg/mL
same,MIC range,[2],2 to 32 µg/mL
same,drug resistance rate,[2],75
same,drug sensitive rate,[2],0
same,drug resistance rate,[3],100
same,drug sensitive rate,[3],0
same,MIC50,[3]; [22],64 µg/mL
C[C@H]1[C@H](NC(=O)/C(=N\OC(C)(C)C(=O)O)c2csc(N)n2)C(=O)N1S(=O)(=O)O [aztreonam],MIC50,[2],64 µg/mL
NCCONC(=O)[C@@H]1CC[C@@H]2CN1C(=O)N2OS(=O)(=O)O [OP-0595],MIC,[4],> 128 µg/mL
same,MIC,[5],> 128 µg/mL
same,MIC,[6],> 128 µg/mL
same,MIC,[7],> 128 µg/mL
same,MIC,[8],> 128 µg/mL
same,MIC,[9],> 128 µg/mL
same,MIC,[10],> 128 µg/mL
same,MIC,[11],> 128 µg/mL
same,MIC,[12],> 128 µg/mL
same,MIC,[13],4 µg/mL
same,MIC,[14],16 µg/mL
same,MIC,[15],> 128 µg/mL
same,MIC,[16],> 128 µg/mL
"NC(=O)[C@@H]1CC[C@@H]2CN1C(=O)N2OS(=O)(=O)O [Avibactam, avibactam]",IC50,[17],3130 nM
same,IC50,[18],107 nM
same,IC50,[19],67 nM
same,IC50,[20],1490 nM
"C[C@@H](O)[C@H]1C(=O)N2C(C(=O)O)=C(S[C@@H]3CN[C@H](C(=O)Nc4cccc(C(=O)O)c4)C3)[C@H](C)[C@H]12 [Ertapenem, ertapenem]",MIC,[5],> 128 µg/mL
same,MIC,[6],> 128 µg/mL
same,MIC,[10],4 µg/mL
same,MIC,[14],8 µg/mL
"CC(C)(O/N=C(\C(=O)N[C@@H]1C(=O)N2C(C(=O)[O-])=C(C[n+]3ccccc3)CS[C@H]12)c1csc(N)n1)C(=O)O [Ceftazidime, ceftazidime]",MIC,[4],> 128 µg/mL
same,MIC,[7],> 128 µg/mL
same,MIC,[8],64 µg/mL
same,MIC,[9],> 128 µg/mL
same,MIC,[11],> 128 µg/mL
same,MIC,[12],> 128 µg/mL
same,MIC,[13],> 128 µg/mL
same,MIC,[15],32 µg/mL
same,MIC,[16],> 128 µg/mL
same,MIC50,[1]; [21],> 128 µg/mL
same,MIC90,[1]; [21],> 128 µg/mL
same,drug resistance rate,[1],100
same,drug sensitive rate,[1],0
same,MIC50,[2],> 128 µg/mL
same,MIC90,[2],> 128 µg/mL
same,MIC range,[2],>128 µg/mL
same,drug resistance rate,[2],100
same,drug sensitive rate,[2],0
same,MIC range,"[3]; KPC-2 carbapenemase-producing K. pneumoniae clinical isolates (8 strains), enzyme inhibitor in combinations fixed at 4 μg/mL",64 to 128 µg/mL
same,drug resistance rate,[3],100
same,drug sensitive rate,[3],0
same,MIC50,[3]; [22],> 128 µg/mL
same,MIC90,[3]; [22],> 128 µg/mL
